Data taken from patent US8658190B2 (priority 2005, dated 2014).
Read-outs that look alike come from different tables or passages of the source.

What was measured:
[1] = system: mycobacteria; assay: mycobactericidal / tuberculocidal activity (exposure time); format: cell-based
[2] = stability of glutaraldehyde concentration in solution; format: physicochemical; details: composition buffered to about pH 7.3 to 7.9
[3] = system: bacterial spores; details: background statement, cited from earlier work
[4] = system: mycobacteria; details: 25 C, background statement; cited from earlier work

For `CCO` [Alcohol], the tuberculocidal activity ([1]; alcohol alone, 5% to 20% by volume) was “not tuberculocidal”.
In the case of `O=CCCCC=O` [Glutaraldehyde], the tuberculocidal activity ([1]; 2.0% glutaraldehyde alone, 20° C., exposure time of 10 min) is listed as “nor is 2.0% glutaraldehyde tuberculocidal”, the “time glutaraldehyde is stable during use and re-use” value [2] is listed as “about 14 days” and the “time to kill bacterial spores” value ([3]; 25 C) is listed as “about 10.0 hrs”. For the same compound, the “time to kill 6 log 10 of mycobacteria” value [4] was “about 45 min”.
In the case of `O=Cc1ccccc1C=O` [Ortho-phthaladehyde, ortho-phthalaldehyde], the “time to kill bacterial spores” value ([3]; temperature not given) is listed as “about 32 hrs”.
